Values quoted from earlier work as cited in patent US11946927B2, “Process and system for identifying individuals having a high risk of inflammatory bowel disease and a method of treatment” (MUSIDORA BIOTECHNOLOGY LLC, priority 2016, dated 2024).

Test system: patients with active UC

SMILES: Nc1ccc(O)c(C(=O)O)c1 [mesalamine]
- efficacy of mesalamine in active UC (active UC, first-line conventional clinical treatment): 30-40%
- clinical treatment failures (mesalamine used to treat active UC, patients with moderate UC, compared to 80% treated with placebo): 60 % of patients
